Data as given in patent US9988371B2, “Benzimidazole analogues and related methods” (The Arizona Board of Regents, on Behalf of the University …, priority 2014, dated 2018).

What was measured:
RET/C634Y = target: T1, RET/C634Y (Homo sapiens, UniProt P07949, C634Y); assay: In vivo target inhibition, RET phosphorylation and signaling in RET/C634Y-induced tumors; design: species or system nude mice; conditions: 48 hr, 1.0 or 3.0 mg/kg daily
T1 construct: expressed in transfected cells; host or cells: NIH3T3 fibroblasts, grown as tumours in BALB/c nu/nu mice
T1 sequence (P07949 29-1072 isoform P07949-2 C634Y limits assumed): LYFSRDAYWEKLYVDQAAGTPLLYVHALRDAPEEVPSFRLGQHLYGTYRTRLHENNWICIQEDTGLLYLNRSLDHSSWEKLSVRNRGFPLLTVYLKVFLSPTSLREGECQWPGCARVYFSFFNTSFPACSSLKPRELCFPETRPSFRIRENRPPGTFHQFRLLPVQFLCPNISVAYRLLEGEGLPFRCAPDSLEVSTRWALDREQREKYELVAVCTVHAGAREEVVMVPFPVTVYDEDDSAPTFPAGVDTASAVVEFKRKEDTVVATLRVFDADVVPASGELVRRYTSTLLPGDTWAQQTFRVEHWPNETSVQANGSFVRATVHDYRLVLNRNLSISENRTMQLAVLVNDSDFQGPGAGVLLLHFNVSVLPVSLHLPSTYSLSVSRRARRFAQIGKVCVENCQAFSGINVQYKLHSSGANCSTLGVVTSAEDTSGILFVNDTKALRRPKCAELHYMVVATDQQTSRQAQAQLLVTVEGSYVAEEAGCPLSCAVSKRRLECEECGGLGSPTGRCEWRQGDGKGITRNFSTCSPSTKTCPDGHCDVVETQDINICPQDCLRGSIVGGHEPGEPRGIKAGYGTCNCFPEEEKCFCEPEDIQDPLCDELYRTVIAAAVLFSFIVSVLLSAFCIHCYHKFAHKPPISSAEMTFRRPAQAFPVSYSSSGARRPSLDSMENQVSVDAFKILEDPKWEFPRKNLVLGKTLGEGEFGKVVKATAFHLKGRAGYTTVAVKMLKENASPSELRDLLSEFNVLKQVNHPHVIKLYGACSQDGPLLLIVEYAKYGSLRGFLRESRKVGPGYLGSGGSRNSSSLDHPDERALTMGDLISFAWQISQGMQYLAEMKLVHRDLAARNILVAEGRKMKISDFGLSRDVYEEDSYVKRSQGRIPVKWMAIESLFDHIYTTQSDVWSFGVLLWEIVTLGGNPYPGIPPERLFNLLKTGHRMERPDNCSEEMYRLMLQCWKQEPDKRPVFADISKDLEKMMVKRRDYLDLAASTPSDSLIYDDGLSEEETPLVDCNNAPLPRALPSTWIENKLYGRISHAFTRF
Experimental: FIG. 9: Photographs of blots showing effects of Pz-1 on cellular phosphorylation events in tumors induced in nude mice (from FIG. 8) by injection of NIH3T3 fibroblasts transformed by RET/C634Y or HRAS/G12V. […] Some of the vehicle-treated tumors, at the end of the tumor growth experiment described in FIG. 8, were treated for 48 hr with different doses of Pz-1 (TR) or left untreated (NT). At the end of the treatment, 50 μg of tumor protein lysates were subjected to immunoblotting with anti-phospho-Y1062 (αp1062) and anti-phospho-905 (αpY905) RET antibodies, anti-phospho-MAPK (αpMAPK, T302/Y304), anti-phospho-SHC (αpSHC, Y317), anti-phospho-p70S6K (αpp70S6K, T389), anti-phospho-S6RP (αpS6RP, S235/S236), and anti-phospho-VEGFR2 (αpVEGFR2 pY1175) antibodies. The blots were normalized using anti-RET (αRET), anti-SHC (αSHC), anti-MAPK (αMAPK), anti-p70S6K (αp70S6K), anti-S6RP (αS6RP) or anti-VEGFR2 (αVEGFR2) antibodies.
Some of the vehicle-treated tumors, at the end of the tumor growth experiment reported in FIG. 8, were treated for 48 hr with different doses of Pz-1 (1.0 or 3.0 mg/kg daily) or left untreated. […]

[1] = tested on: Ba/F3 cells transfected by RET/PTC3 (NCOA4-RET); assay: IL-3-independent proliferation of Ba/F3 RET/PTC3 cells; format: cell-based, murine; conditions: Mus musculus, BaF3
Experimental: FIG. 6: Activity of Pz-1 on NCOA4-RET oncogene-driven IL-3-independent proliferation of murine Ba/F3 cells. […] Ba/F3 and Ba/F3 NCOA4-RET cells were incubated with vehicle (NT) or the indicated concentration of Pz-1 in complete medium and counted at different time points. Data are the mean±SD of one experiment performed in triplicate. Murine interleukin-3 (IL-3) dependent pro-B Ba/F3 cells were from ATCC. Ba/F3 cells stably expressing NCOA4-RET (RET/PTC3) protein were generated by transfecting long isoform (RET-51) of NCOA4-RET by electroporation. Parental and Ba/F3-NCOA4-RET cells were cultured in RPMI 1640 with 10% FBS; parental cells required also 10 ng/ml IL-3. IC50 doses (with Confidence Intervals) are indicated.
Nthy-ory-3-1 and TTcells were seeded in 60-mm dishes. Cells were kept in 2% (Nthy-ori-3-1) or 10% (TT) fetal calf serum. One day after plating, different concentrations of Pz-1 or vehicle were added to the medium and changed every 2-3 days. Cells were counted every 2-3 days. […] Parental and RET/PTC-expressing Ba/F3 were kept in 10% fetal calf serum in 6-multi wells and counted every day for 4 consecutive days, changing media every 2 days. […] IC50 doses were calculated through a curve fitting analysis from the last day of growth curves using the PRISM software program (Graphpad Software Inc). […]

## Cn1cc(-c2ccc3c(c2)ncn3-c2ccc(CC(=O)Nc3cc(C(C)(C)C)on3)cc2)cn1 [Pz-1, N-(5-(tert-butyl)isoxazol-3-yl)-2-(4-(5-(1-methyl-1H-pyrazol-4-yl)-1H-benzo[d]imidazol-1-yl)phenyl)acetamide]
RET/C634Y
  RET phosphorylation and intracellular signaling (SHC, MAPK, p70S6K and S6RP) in tumors: inhibited
[1]
  IC50: 340 pM
